Test results reported in US20060069132A1, “Azolecarboxamide herbicides” (priority 2004, published 2006).

Columns and labels:
Assay in all cases: Test C pre-/postemergence herbicide test
Surinam grass = format: in vivo, Urochloa decumbens
Outline: (§1)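 Seeds were planted and sprayed preemergence with test chemicals in a non-phytotoxic solvent mixture containing surfactant; postemergence treatments went onto plants 2 to 18 cm tall (1- to 4-leaf stage). After 12 to 14 days in a greenhouse, injury was rated visually against untreated controls on a 0–100 scale.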

corn = format: in vivo, Zea mays
Outline: as §1

giant foxtail = format: in vivo, Setaria faberi
Outline: as §1

johnsongrass = format: in vivo, Sorghum halepense
Outline: as §1

lambsquarters = format: in vivo, Chenopodium album
Outline: as §1

morningglory = format: in vivo, Ipomoea coccinea; design: key to Plant response rating, Morningglory: 0 = no effect, 100 = complete control
Outline: as §1

eastern black nightshade = format: in vivo, Solanum ptycanthum
Outline: as §1

yellow nutsedge = format: in vivo, Cyperus esculentus
Outline: as §1

common ragweed = format: in vivo, Ambrosia elatior; design: key to Plant response rating, Ragweed: 0 = no effect, 100 = complete control
Outline: as §1

soybean = format: in vivo, Glycine max
Outline: as §1

[1] = 31 g ai/ha, preemergence, scale 0 to 100
[2] = 125 g ai/ha, scale 0 (no effect) to 100 (complete control), visual, 12 to 14 days, preemergence
[3] = postemergence, 125 g ai/ha, scale 0 to 100
[4] = postemergence, 62 g ai/ha, scale 0 to 100
[5] = Postemergence, 125 g ai/ha, scale 0 to 100, 0 no effect, 100 complete control
[6] = 62 g ai/ha, preemergence, scale 0 to 100
[7] = 250 g ai/ha, scale 0-100, preemergence
[8] = 500 g ai/ha, scale 0 to 100 (0 no effect, 100 complete control), visual, 12 to 14 days, preemergence
[9] = Postemergence, 500 g ai/ha, scale 0 to 100
[10] = Postemergence, 250 g ai/ha, scale 0 to 100, 0 no effect, 100 complete control
[11] = Preemergence, 500 g ai/ha, scale 0 to 100, 0 no effect, 100 complete control
[12] = 250 g ai/ha, scale 0 to 100 (0 no effect, 100 complete control), visual, 12 to 14 days, preemergence

CCNC(=O)c1cccc(NC(=O)c2cc(C(C)(C)C)nn2CCF)c1 [Compound 35]
100: Plant response rating, Lambsquarters (lambsquarters; [2]) | Plant response rating (0 = no effect, 100 = complete control), Morningglory (morningglory; 62 g ai/ha, preemergence)
10: Plant response rating (0 = no effect, 100 = complete control), Surinam Grass (Surinam grass; 62 g ai/ha, preemergence) | Plant response rating, Johnsongrass (johnsongrass; [1]) | Plant response rating (0 = no effect, 100 = complete control), Ragweed (common ragweed; 62 g ai/ha, preemergence)
0: Plant response rating, Surinam Grass (Surinam grass; [1]) | Plant response rating, Corn (corn; [1]) | Plant response rating (0 = no effect, 100 = complete control), Corn (corn; 62 g ai/ha, preemergence) | Plant response rating, Corn (corn; [2]) | Plant response rating, Foxtail, Giant (giant foxtail; [1]) | Plant response rating, Lambsquarters (lambsquarters; [1]) | Plant response rating, Morningglory (morningglory; [1]) | Plant response rating, Nutsedge, Yellow (yellow nutsedge; 16 g ai/ha, scale 0 to 100, last section of Table C, preemergence) | Plant response rating, Nutsedge, Yellow (yellow nutsedge; [1]) | Plant response rating (0 = no effect, 100 = complete control), Nutsedge, Yellow (yellow nutsedge; 62 g ai/ha, preemergence) | Plant response rating, Nutsedge, Yellow (yellow nutsedge; [2]) | Plant response rating, Nutsedge, Yellow (yellow nutsedge; [3]) | Plant response rating, Nutsedge, Yellow (yellow nutsedge; [4]) | Plant response rating, Ragweed (common ragweed; [1]) | Plant response rating, Soybean (soybean; [1]) | Plant response rating (0 = no effect, 100 = complete control), Soybean (soybean; 62 g ai/ha, preemergence) | Plant response rating, Soybean (soybean; [2])
60: Plant response rating, Surinam Grass (Surinam grass; [3])
70: Plant response rating, Johnsongrass (johnsongrass; [2]) | Plant response rating, Johnsongrass (johnsongrass; [5]) | Plant response rating, Johnsongrass (johnsongrass; [4]) | Plant response rating, Nightshade (eastern black nightshade; [1])
40: Plant response rating, Surinam Grass (Surinam grass; [4]) | Plant response rating, Corn (corn; [5]) | Plant response rating, Foxtail, Giant (giant foxtail; [5]) | Plant response rating, Foxtail, Giant (giant foxtail; [4]) | Plant response rating, Morningglory (morningglory; [3])
80: Plant response rating, Ragweed (common ragweed; [2])
90: Plant response rating (0 = no effect, 100 = complete control), Lambsquarters (lambsquarters; 62 g ai/ha, preemergence) | Plant response rating, Lambsquarters (lambsquarters; [3]) | Plant response rating, Lambsquarters (lambsquarters; [4]) | Plant response rating, Nightshade (eastern black nightshade; [2]) | Plant response rating, Soybean (soybean; [3]) | Plant response rating, Soybean (soybean; [4])
50: Plant response rating (0 = no effect, 100 = complete control), Johnsongrass (johnsongrass; 62 g ai/ha, preemergence) | Plant response rating, Ragweed (common ragweed; [3]) | Plant response rating, Ragweed (common ragweed; [4])
30: Plant response rating, Corn (corn; [4]) | Plant response rating, Foxtail, Giant (giant foxtail; [2])
20: Plant response rating, Surinam Grass (Surinam grass; [2]) | Plant response rating (0 = no effect, 100 = complete control), Foxtail, Giant (giant foxtail; 62 g ai/ha, preemergence) | Plant response rating, Morningglory (morningglory; [4])

CCc1nc(C(C)(C)C)sc1C(=O)Nc1cccc(C(=O)NCC2CC2)c1 [Compound 212]
70: Morningglory plant response rating (morningglory; [9]) | Plant response rating, Morningglory (morningglory; [10]) | Plant response rating, Nightshade (eastern black nightshade; [6]) | Plant response rating, Soybean (soybean; [10])
15: Plant response rating, Corn (corn; [4])
95: Plant response rating, Foxtail, Giant (giant foxtail; [8]) | Plant response rating, Ragweed (common ragweed; [8])
40: Plant response rating, Corn (corn; [8]) | Corn plant response rating (corn; [9]) | Plant response rating, Corn (corn; [10])
35: Plant response rating, Corn (corn; [3]) | Johnsongrass plant response rating (johnsongrass; [9]) | Plant response rating, Johnsongrass (johnsongrass; [10])
10: Plant response rating, Foxtail, Giant (giant foxtail; [4]) | Plant response rating, Morningglory (morningglory; [3]) | Plant response rating, Morningglory (morningglory; [4]) | Plant response rating, Nutsedge, Yellow (yellow nutsedge; [3])
50: Surinam Grass plant response rating (Surinam grass; [9]) | Plant response rating, Foxtail, Giant (giant foxtail; [10]) | Plant response rating, Johnsongrass (johnsongrass; [7]) | Plant response rating, Soybean (soybean; [4])
80: Plant response rating, Lambsquarters (lambsquarters; [4]) | Plant response rating, Ragweed (common ragweed; [10])
5: Plant response rating, Surinam Grass (Surinam grass; [7]) | Plant response rating, Surinam Grass (Surinam grass; [3]) | Plant response rating, Morningglory (morningglory; [7])
20: Plant response rating, Surinam Grass (Surinam grass; [8]) | Plant response rating, Surinam Grass (Surinam grass; [10]) | Plant response rating, Foxtail, Giant (giant foxtail; [2]) | Plant response rating, Foxtail, Giant (giant foxtail; [7]) | Plant response rating, Foxtail, Giant (giant foxtail; [3]) | Nutsedge, Yellow plant response rating (yellow nutsedge; [9]) | Plant response rating, Nutsedge, Yellow (yellow nutsedge; [10])
0: Plant response rating, Surinam Grass (Surinam grass; [6]) | Plant response rating, Surinam Grass (Surinam grass; [2]) | Plant response rating, Surinam Grass (Surinam grass; [4]) | Plant response rating, Corn (corn; [6]) | Plant response rating, Corn (corn; [2]) | Plant response rating, Foxtail, Giant (giant foxtail; [6]) | Plant response rating, Johnsongrass (johnsongrass; [6]) | Plant response rating, Johnsongrass (johnsongrass; [2]) | Plant response rating, Johnsongrass (johnsongrass; [4]) | Plant response rating, Morningglory (morningglory; [6]) | Plant response rating, Morningglory (morningglory; [2]) | Plant response rating, Nutsedge, Yellow (yellow nutsedge; [6]) | Plant response rating, Nutsedge, Yellow (yellow nutsedge; [2]) | Plant response rating, Nutsedge, Yellow (yellow nutsedge; [7]) | Plant response rating, Nutsedge, Yellow (yellow nutsedge; [8]) | Plant response rating, Nutsedge, Yellow (yellow nutsedge; [4]) | Plant response rating, Ragweed (common ragweed; [6]) | Plant response rating, Ragweed (common ragweed; [2]) | Plant response rating, Soybean (soybean; [6]) | Plant response rating, Soybean (soybean; [2]) | Plant response rating, Soybean (soybean; [7])
100: Plant response rating, Lambsquarters (lambsquarters; [6]) | Plant response rating, Lambsquarters (lambsquarters; [2]) | Plant response rating, Lambsquarters (lambsquarters; [7]) | Plant response rating, Lambsquarters (lambsquarters; [8]) | Lambsquarters plant response rating (lambsquarters; [9]) | Plant response rating, Nightshade (eastern black nightshade; [2]) | Plant response rating, Nightshade (eastern black nightshade; [7]) | Plant response rating, Nightshade (eastern black nightshade; [8])
30: Plant response rating, Corn (corn; [7]) | Plant response rating, Johnsongrass (johnsongrass; [3]) | Plant response rating, Morningglory (morningglory; [8]) | Plant response rating, Ragweed (common ragweed; [7])
60: Foxtail, Giant plant response rating (giant foxtail; [9]) | Plant response rating, Johnsongrass (johnsongrass; [8]) | Plant response rating, Ragweed (common ragweed; [3]) | Plant response rating, Ragweed (common ragweed; [4]) | Plant response rating, Soybean (soybean; [8]) | Plant response rating, Soybean (soybean; [3])
90: Plant response rating, Lambsquarters (lambsquarters; [10]) | Plant response rating, Lambsquarters (lambsquarters; [3])
85: Soybean plant response rating (soybean; [9])

CCCCOc1cccc(NC(=O)c2cc(C(C)(C)C)nn2CC)c1 [Compound 137]
40: Johnsongrass plant response rating (johnsongrass; [11]) | Plant response rating (0 = no effect, 100 = complete control), Lambsquarters (lambsquarters; 62 g ai/ha, preemergence)
5: Plant response rating, Corn (corn; [2]) | Plant response rating, Corn (corn; [12]) | Corn plant response rating (corn; [11]) | Plant response rating, Johnsongrass (johnsongrass; [2])
100: Plant response rating, Lambsquarters (lambsquarters; [2]) | Lambsquarters plant response rating (lambsquarters; [11]) | Ragweed plant response rating (common ragweed; [11])
85: Foxtail, Giant plant response rating (giant foxtail; [11]) | Plant response rating, Nightshade (eastern black nightshade; [2])
0: Plant response rating (0 = no effect, 100 = complete control), Surinam Grass (Surinam grass; 62 g ai/ha, preemergence) | Plant response rating (0 = no effect, 100 = complete control), Corn (corn; 62 g ai/ha, preemergence) | Plant response rating (0 = no effect, 100 = complete control), Johnsongrass (johnsongrass; 62 g ai/ha, preemergence) | Plant response rating (0 = no effect, 100 = complete control), Morningglory (morningglory; 62 g ai/ha, preemergence) | Plant response rating, Morningglory (morningglory; [2]) | Plant response rating (0 = no effect, 100 = complete control), Nutsedge, Yellow (yellow nutsedge; 62 g ai/ha, preemergence) | Plant response rating, Nutsedge, Yellow (yellow nutsedge; [2]) | Nutsedge, Yellow plant response rating (yellow nutsedge; [11]) | Plant response rating (0 = no effect, 100 = complete control), Ragweed (common ragweed; 62 g ai/ha, preemergence) | Plant response rating, Ragweed (common ragweed; [2]) | Plant response rating (0 = no effect, 100 = complete control), Soybean (soybean; 62 g ai/ha, preemergence) | Plant response rating, Soybean (soybean; [2])
90: Nightshade plant response rating (eastern black nightshade; [11])
50: Plant response rating, Foxtail, Giant (giant foxtail; [2])
10: Plant response rating, Surinam Grass (Surinam grass; [2]) | Plant response rating (0 = no effect, 100 = complete control), Foxtail, Giant (giant foxtail; 62 g ai/ha, preemergence) | Soybean plant response rating (soybean; [11])
60: Surinam Grass plant response rating (Surinam grass; [11]) | Plant response rating, Foxtail, Giant (giant foxtail; [12]) | Morningglory plant response rating (morningglory; [11]) | Plant response rating (0 = no effect, 100 = complete control), Nightshade (eastern black nightshade; 62 g ai/ha, preemergence)
